Earlier results, collected in patent US20230076527A1, “TREATMENT OF PAROXYSMAL NOCTURNAL HEMOGLOBINURIA” (Apellis Pharmaceuticals, Inc., priority 2020, published 2023).

Tested on: complement activation
Details: relative to compstatin amidated at the C-terminus; published data; cited from earlier work

| Substance | Activity over compstatin [xmore] |
| --- | --- |
| Ac-ICVWQD(5fW)GAHRCT-CONH2 [Ac-V4W/W7(5fW)/H9A] | 121 |
| Ac-ICV(1-Nal)QDWGAHRCT-COOH (N-acetyl, 1-Nal) [Ac V4(1-Nal)/H9A -OH] | 30 |
| Ac-ICVVQDWGHHRCT-CONH2 [Ac-compstatin] | 3 |
| Ac-ICV(2-Igl)QDWGAHRCT-COOH (N-acetyl, 2-Igl) [Ac-V42Igl/H9A -OH] | 37 |
| Ac-ICVWQDWGAHRCdT-COOH [AC-V4W/H9A/T13dT -OH] | 55 |
| H-GICV(6fW)QD(6fW)GAHRCTN-COOH (6-fluoro-Trp) [+G/V4(6fW)/W7(6fW)H9A+N -OH] | 126 |
| Ac-ICVWQDWGAHRCT-CONH2 (Ac-ICVWQDWGAHRCT-NH2; cysteine pairing not given here) [Ac-V4W/H9A] | 45 |
| Ac-ICV(2-Nal)QDWGAHRCT-COOH (N-acetyl, 2-Nal) [Ac V4(2-Nal)/H9A -OH] | 38 |
| Ac-ICVYQDWGAHRCT-CONH2 [AC-V4Y/H9A] | 14 |
| Ac-ICV(Bpa)QDWGAHRCT-CONH2 (N-acetyl, C-amide, Bpa) [Ac-V4(Bpa)/H9A] | 86 |
| Ac-ICV(Bpa)QDWGAHRCT-COOH (N-acetyl, Bpa) [Ac-V4(Bpa)/H9A -OH] | 49 |
| Ac-ICV(2-Nal)QDWGAHRCT-CONH2 (N-acetyl, C-amide, 2-Nal) [Ac-V4(2-Nal)/H9A] | 99 |
| Ac-ICVDhtQDWGAHRCT-COOH [Ac-V4Dht/H9A -OH] | 5 |
| Ac-1CV(2-Igl)QDWGAHRCT-CONH2 [Ac-V42Igl/H9A] | 39 |
